Measurements: patent publication US8012987B2, “Indolo[2,1-b] quinazole-6,12-dione antimalarial compounds and methods of treating malaria therewith” (The United States of America as represented by the …, priority 1998, dated 2011)
≈ marks a conversion by molar mass, not a printed value. Read-outs that look alike come from different tables or passages of the source.

Legend:
Assay type in all cases: cell-based
[1] = test system: Plasmodium falciparum clone CDC Sierra Leone I (D-6); experiment: In vitro inhibition of [3H]hypoxanthine uptake, P. falciparum D-6 clone; conditions: Plasmodium falciparum, read-out: IC50 (D-6)
Method: (§1) The in vitro assays were conducted by using a modification of the semiautomated microdilution technique of Desjardins et al.^11 and Chulay et al.^12 Two strains of Plasmodium falciparum clones, from CDC Indochina III (W-2), CDC Sierra Leone I (D-6). […] These solutions were subsequently serially diluted 2-fold with a Biomek 1000® (Beckman, Fullerton, Calif.) over 11 different concentrations. The parasites were exposed to serial dilutions of each compound for 48 h and incubated at 37° C. with 5% O2, 5% CO2, and 90% N2 prior to the addition of [^3H]hypoxanthine. […] Uptake of [^3H]hypoxanthine was measured with a Packard Topcount scintillation counter. […] The values without parentheses indicate culture in blood serum which more closely resemble conditions in a living animal.
(§2) The numbers associated with both W2 and D6 refer to IC50 values and the units are ng/ml.

[2] = test system: Plasmodium falciparum clone CDC Indochina III (W-2); experiment: In vitro inhibition of [3H]hypoxanthine uptake, P. falciparum W-2 clone; conditions: Plasmodium falciparum, read-out: IC50 (W-2)
Method: as §1, §2

[3] = test system: Plasmodium falciparum clone Thai TM90C2B; experiment: In vitro inhibition of [3H]hypoxanthine uptake, P. falciparum TM90C2B; conditions: Plasmodium falciparum, TM90C2B, values without parentheses: blood serum (footnote: blood plasma) replacing Albumax
Method: The in vitro assays were conducted by using a modification of the semiautomated microdilution technique of Desjardins et al.^11 and Chulay et al.^12 Two strains of Plasmodium falciparum clones, from CDC Indochina III (W-2), CDC Sierra Leone I (D-6). […] They were derived by direct visualization and micromanipulation from patient isolates.^13 Test compounds were initially dissolved in DMSO and diluted 400-fold in RPMI 1640 culture medium supplemented with 25 mM Hepes, 32 mM HaHCO3, and 10% Albumax I® (GIBCO BRL, Grand Island, N.Y.). These solutions were subsequently serially diluted 2-fold with a Biomek 1000® (Beckman, Fullerton, Calif.) over 11 different concentrations. The parasites were exposed to serial dilutions of each compound for 48 h and incubated at 37° C. with 5% O2, 5% CO2, and 90% N2 prior to the addition of [^3H]hypoxanthine. After a further incubation of 18 h, parasite DNA was harvested from each microtiter well using Packard Filtermate 196 Harvester® (Meriden, Conn.) onto glass filters. Uptake of [^3H]hypoxanthine was measured with a Packard Topcount scintillation counter. […] This procedure was repeated with the test compounds initially dissolved in DMSO and diluted 400-fold in RPMI 1640 culture medium supplemented with 25 mM Hepes, 32 mM HaHCO3, and with blood serum replacing the 10% Albumax I® (see Table 1, figures without parentheses). The values without parentheses indicate culture in blood serum which more closely resemble conditions in a living animal.
Four strains of Plasmodium falciparum clones, from CDC Indochina III (W-2), CDC Sierra Leone I (D-6), Thai WR75-TM9, and Thai TM90C2B were utilized in susceptibility testing and the IC50 results appear in Table 1.

[4] = values in parentheses: culture medium with 10% Albumax I
[5] = values without parentheses: blood serum (footnote: blood plasma) replacing Albumax

Compound | IC50 [1, 4] [µg/mL] | IC50 [2, 4] [µg/mL] | other results
O=C1c2ccccc2-n2c1nc1c(Br)cc(Br)c(Cl)c1c2=O [Example 38] | 0.242 (≈ 0.549 µM) | 0.203 (≈ 0.461 µM) | 
O=C1c2cc(C(O)(C(F)(F)F)C(F)(F)F)ccc2-n2c1nc1ccncc1c2=O [Example 84] | 1.71 (≈ 4.12 µM) | 0.938 (≈ 2.26 µM) | 
Cc1ccc(S(=O)(=O)N/N=C2/c3ccccc3-n3c2nc2ccccc2c3=O)cc1 [Example 25] | 1.84 (≈ 4.42 µM) | 1.99 (≈ 4.78 µM) | 
CN(CC(=O)O)c1ccc2c(=O)n3c(nc2c1)C(=O)c1cc(Cl)ccc1-3 [Example 60] | 0.0781 (≈ 0.211 µM) | 0.0679 (≈ 0.184 µM) | 
CC1CN(c2cc3nc4n(c(=O)c3cc2F)-c2ccc(I)cc2C4=O)CCN1C(=O)OC(C)(C)C (stereo not shown) [Example 34] | 0.588 (≈ 0.996 µM) | 0.601 (≈ 1.02 µM) | 
O=C1/C(=c2\c3ccccc3n3c(=O)c4ccccc4nc23)Nc2ccccc21 [Example 51] |  |  | IC50 [1]: 8.69 µg/mL (≈ 23.9 µM); IC50 [2]: 8.76 µg/mL (≈ 24.1 µM)
Cc1cccc2c(=O)n3c(nc12)C(=O)c1cc(F)ccc1-3 [Example 14] | 0.0102 (≈ 0.0363 µM) | 0.00576 (≈ 0.0206 µM) | 
Cc1ccc2nc3n(c(=O)c2c1)-c1ccccc1C3=O [Example 5] | 0.313 (≈ 1.19 µM) | 0.264 (≈ 1.01 µM) | 
Cc1ccc2nc3n(c(=O)c2c1)-c1ccc(F)cc1C3=O [Example 11] | 0.0049 (≈ 0.0175 µM) | 0.0028 (≈ 0.00999 µM) | IC50 [3]: 0.0164 µg/mL (≈ 0.0585 µM); IC50 [1, 5]: 0.0221 µg/mL (≈ 0.0787 µM); IC50 [2, 5]: 0.0147 µg/mL (≈ 0.0524 µM)
O=C(N/N=C\c1ccc2c(c1)C(=O)c1nc3ccncc3c(=O)n1-2)c1ccncc1 [Example 88] | 0.49 (≈ 1.24 µM) | 0.177 (≈ 0.448 µM) | 
O=c1c2ccccc2nc2n1-c1ccccc1C21OCCO1 [Example 80] | 7.97 (≈ 27.3 µM) | 6.9 (≈ 23.6 µM) | 
Cc1cc(C)c2nc3n(c(=O)c2c1)-c1ccc(F)cc1C3=O [Example 10] | 0.138 (≈ 0.469 µM) | 0.131 (≈ 0.445 µM) | 
CCOC(=O)c1nc2ccccc2c(=O)n1-c1ccccc1 [Example 53] | 9.01 (≈ 30.6 µM) | 4.87 (≈ 16.6 µM) | 
Cc1ccc2c(c1)C(=O)c1nc3ccncc3c(=O)n1-2 [Example 82] | 0.0628 (≈ 0.239 µM) | 0.124 (≈ 0.471 µM) | 
CC1CN(c2cc3nc4n(c(=O)c3cc2F)-c2ccc(I)cc2C4=O)CCN1 (stereo not shown) [Example 35] | 0.103 (≈ 0.211 µM) | 0.134 (≈ 0.273 µM) | 
CC(C)(C)OC(=O)N1CCN(c2cc3nc4n(c(=O)c3cc2F)-c2ccc(I)cc2C4=O)CC1 [Example 31] | 0.161 (≈ 0.279 µM) | 0.134 (≈ 0.233 µM) | 
O=C1c2cc(I)ccc2-n2c1nc1c(O)nc(O)nc1c2=O [Example 32] | 3.85 (≈ 9.43 µM) | 2.59 (≈ 6.34 µM) | 
O=C1c2ccccc2-n2c1nc1ccncc1c2=O [Example 52] | 0.0733 (≈ 0.294 µM) | 0.0647 (≈ 0.26 µM) | 
O=C1c2ccc(Cl)cc2-n2c1nc1ncccc1c2=O [Example 22] | 0.278 (≈ 0.979 µM) | 0.263 (≈ 0.927 µM) | 
Cc1ncc2c(=O)n3c(nc2n1)C(=O)c1ccccc1-3 [Example 56] | 0.216 (≈ 0.817 µM) | 0.117 (≈ 0.443 µM) | 
O=C1c2ccccc2-n2c1nc1ccc(Br)cc1c2=O [Example 7] | 0.577 (≈ 1.76 µM) | 0.513 (≈ 1.57 µM) | 
CCCCCCC(C)c1ccc2c(c1)C(=O)c1nc3ccncc3c(=O)n1-2 (stereo not shown) [Example 71] | 0.143 (≈ 0.397 µM) | 0.12 (≈ 0.332 µM) | 
O=C1c2ccccc2-n2c1nc1nccnc1c2=O [Example 30] | 0.5 (≈ 2 µM) | 0.354 (≈ 1.42 µM) | 
CCN(CCN(C)C)c1ccc2c(=O)n3c(nc2c1)C(=O)c1cc(Cl)ccc1-3 [Example 49] | 0.0739 (≈ 0.186 µM) | 0.0747 (≈ 0.188 µM) | 
CN1CCN(/N=C\c2ccc3c(c2)C(=O)c2nc4ccncc4c(=O)n2-3)CC1 [Example 66] | 0.517 (≈ 1.38 µM) | 0.449 (≈ 1.2 µM) | 
O=C1c2cc(I)ccc2-n2c1nc1ncccc1c2=O [Example 23] | 0.00397 (≈ 0.0106 µM) | 0.00167 (≈ 0.00445 µM) | 
Cc1cccc2c(=O)n3c(nc12)C(=O)c1ccccc1-3 [Example 6] | 0.527 (≈ 2.01 µM) | 0.503 (≈ 1.92 µM) | 
O=C1c2cc(I)ccc2-n2c1nc1c(Br)cc(Br)cc1c2=O [Example 29] | 0.149 (≈ 0.281 µM) | 0.131 (≈ 0.245 µM) | 
CN1CCN(c2ccc3c(c2)-n2c(nc4ccccc4c2=O)C3=O)CC1 [Example 16] | 2.16 (≈ 6.24 µM) | 1.01 (≈ 2.93 µM) | 
